Reference: patent publication US20190204402A1, “METHOD FOR POST-PROCESSING MRI IMAGES TO OBTAIN HEPATIC PERFUSION AND TRANSPORT PARAMETERS” (INSERM (INSTITUT NATIONAL DE LA SANTE DE LA RECHERCHE …, priority 2016, published 2019)
“And” between values parts separate entries of the source, which are not always exact repeats. Identical values can stand only once.

System: liver of patients with chronic liver diseases
Assay: Dynamic gadoxetate-enhanced MR imaging with dual-input three-compartment pharmacokinetic model, patients with chronic liver diseases
Assay type: in vivo, human
Experimental: The feasibility of the method was evaluated in a prospective study with liver biopsy as a gold standard on patients with liver chronic liver diseases. The institutional ethics committee approved the protocol and informed consent was obtained from each subject. Twenty-one consecutive patients (4 women, 17 men; mean age, 51.0±10.2 years) who were suspected of having chronic liver disease on clinical and biological data underwent in the same period liver biopsy and MR imaging. Mean delay between MR imaging and liver biopsy was 2.5 days (range: 0-20 days). All subjects were fasting during six hours before MR imaging. Exclusion criteria were the usual contra-indications for MR imaging.
Percutaneous liver biopsy was performed with a 1.4-mm-diameter needle (Hepafix; Braun, Melsungen, Germany). In 6 patients with ascites and/or trouble of blood crasis, liver biopsy was performed through a transjugular approach using a catheter needle with a diameter of 1.1 mm (Cook Bloomington, Ind., USA). The liver samples were fixed in buffered formalin and embedded in paraffin. Sections, 4 μm thick, were stained with hematoxylin-eosin and Masson trichrome and assessed by a pathologist blinded to the clinical data and to the results of MR imaging. The stage of fibrosis from F0 to F4 was evaluated semiquantitatively on Masson trichrome-stained slides according to the METAVIR staging system. For further analysis of fibrosis severity, a three-level staging of fibrosis was used (F0-F1: minimal fibrosis, F2-F3: intermediate fibrosis, and F4: cirrhosis). Moreover, patients with F≥2 were considered having significant fibrosis.
MR imaging was performed on a Siemens Skyra 3.0 T system (Siemens Medical Solutions, Erlangen, Germany). […] The signal was collected with the 32-channel phased array body and the spine coils.
Gadoxetate (Primovist, Bayer, Berlin, Germany) was injected intravenously using an automatic injector (Medrad Spectris Solaris, Warrendale, PA) with an injection rate of 1 mL·s^-1 and flushed with physiologic saline (same volume and injection rate). The gadoxetate dose was 0.025 mmol·kg^-1.
Dynamic liver imaging was started simultaneously with the intravenous injection of gadoxetate and was performed in free breathing.
To do this, pauses were added between dynamics as follow: for the 280 first dynamics: no pause, the effective temporal resolution was 2.1 s; for the next 150 dynamics: 5 s pause, the effective temporal resolution was 7.1 s, for the 60 last dynamics; 8 s pause, the effective temporal resolution was 10.1 s. Dynamic acquisition duration was close to 38 minutes.
To simultaneously quantify hepatic micro-perfusion and function transport parameters, a model was developed. In the liver, the quantity of gadoxetate Q between τ and τ+dτ can be expressed as the difference between incoming Qin and outgoing gadoxetate quantities Qout. This means that:
To express R(t) with kinetic indices kij, the liver is modeled with a model according to which the liver is a dual input three compartments. The three compartments are the extracellular compartment, the hepatocyte compartment and the intrahepatic bile ducts. The extracellular compartment comprises the intravascular compartment and the Disse space's.
From the motion corrected dynamic frames, arterial and portal input were recorded with freehand regions of interest (ROI) drawn in the abdominal aorta and the portal vein respectively. Tissue response was measured from a ROI placed in the right hepatic lobe anterior segment (segments V-VIII) and the right lobe posterior segment (segments VI-VII), two large ROIs covering an extended region without visible large vessels were drawn on three central slices. For inputs function and tissue response, signal intensity was converted into relative gadoxetate concentration as follows:
To convert blood concentration into plasma concentration, the input functions were normalized by one minus hematocrit. A hematocrit of 45% was assumed in this study. […]

[1] = intermediate fibrosis (F2-F3), n = 8
[2] = minimal fibrosis (F0-F1), n = 9

- Biliary efflux (cirrhosis (F4), n = 4): 0.31±0.57 mL · min^−1 · 100 g^−1
- E (hepatocyte uptake fraction) (cirrhosis (F4), n = 4): 3.4±2.5%
- MTT (extracellular mean transit time) (cirrhosis (F4), n = 4): 30.1 ± 12.5 s and 29.7 ± 9.7 s
- Sinusoidal backflux (cirrhosis (F4), n = 4): 0.0012±0.002 mL · min^−1 · 100 g^−1
- Ve (extracellular volume) (cirrhosis (F4), n = 4): 30.1 ± 12.5%
- Biliary efflux [1]: 1.5±0.5 mL · min^−1 · 100 g^−1
- E (hepatocyte uptake fraction) [1]: 8.7±3.1%
- MTT (extracellular mean transit time) [1]: 14.1 ± 3.9 s
- Sinusoidal backflux [1]: 0.021 ± 0.013 mL · min^−1 · 100 g^−1
- Ve (extracellular volume) [1]: 21.8 ± 6.5%
- Biliary efflux [2]: 3.2±1.0 mL · min^−1 · 100 g^−1
- E (hepatocyte uptake fraction) [2]: 12.0±3.8%
- MTT (extracellular mean transit time) [2]: 15.0 ± 5.0 s
- Sinusoidal backflux [2]: 0.035±0.012 mL · min^−1 · 100 g^−1
- Ve (extracellular volume) [2]: 20.8 ± 6.2%
- k3 (biliary efflux), parametric map (single F0 patient, FIG. 13): 3.53 mL·min^-1·100 g^-1
- k3 (biliary efflux), parametric map (single F1 patient, FIG. 14): 3.67 mL·min^-1·100 g^-1
- k3 (biliary efflux), parametric map (single F2 patient, FIG. 15): 2.23 mL·min^-1·100 g^-1
- k3 (biliary efflux), parametric map (single F3 patient, FIG. 16): 1.64 mL·min^-1·100 g^-1
Compound: CCOc1ccc(C[C@@H](CN(CCN(CC(=O)[O-])CC(=O)[O-])CC(=O)[O-])N(CC(=O)[O-])CC(=O)[O-])cc1.[Gd+3].[H+].[H+] [gadoxetate]
